In patent US9808470B2, “Estrogenic components for use in the treatment of neurological disorders” (UNIVERSITE DE LIEGE, priority 2012, dated 2017):

Tests used:
Type in all cases: in vivo
[1] = Ex.2 neonatal HIE rat model, pre-treatment: brain weight; settings: E4 5 mg/kg ip day 4-7 before HI; day 14; vs vehicle
Experimental: Ischemia was produced by surgery encompassing left common carotid artery double ligation and cut; hypoxia was produced by the inhalation of 11%-8% of oxygen balanced by nitrogen at decreased concentration of oxygen for 20 minutes, followed by inhalation of 8% oxygen and 92% nitrogen at constant concentration for 35 minutes.
Animals were then perfused transcardially with 0.9% saline solution at 4° C., and then with 4% paraformaldehyde in a 0.1-mol/L phosphate-buffered saline solution (pH 7.4) at 4° C. The brains were quickly isolated, weighed and immersed in the same fixative solution at 4° C. for 24 hours, dehydrated with a graded series of ethanol and xylene, and embedded in paraffin.
After delivery, newborn rat pups were assigned to one of the following 4 groups: Sham group, Vehicle group, E4 5 mg/kg/per day group and E4 50 mg/kg/per day group. From day 4 to day 7 inclusive, rat pups were injected intraperitoneally either vehicle (Vehicle group) or E4 (5 mg/kg or 50 mg/kg in accordance to the group assignment) or not injected at all (Sham group). […]

[2] = Ex.4 therapeutic HIE rat model: body weight; settings: PND14
Experimental: To study the therapeutic effect of estetrol, newborn rat pups were assigned to one of the following 6 groups at postnatal day 7: sham group (n=29), vehicle group (n=20), 1 mg/kg E4 group (n=16), 5 mg/kg E4 group (n=19), 10 mg/kg day E4 (n=17) and 50 mg/kg day E4 group (n=15). At postnatal day 7 animals were anesthetized with isoflurane (induction, 3.0%; maintenance, 1.5%), and the rat pups from vehicle and E4 groups passed through surgery encompassing left common carotid artery double ligation and cut. After surgery, the pups were returned to their dams and allowed to recover for 1 hour. The pups were then placed in a humidified hypoxic in vivo cabinet (CoyLab). Hypoxia was produced by the inhalation of 11%-8% of oxygen balanced by nitrogen at decreased concentration of oxygen for 20 minutes, followed by inhalation of 8% oxygen and 92% nitrogen at constant concentration for 35 minutes. All the manipulations were performed at 37° C.
Upon retrieval from the hypoxia chamber the rat pups were injected intraperitoneally either by vehicle (vehicle group) or by E4 (1 mg/kg, 5 mg/kg, 10 mg/kg or 50 mg/kg) in accordance to the group assignment. The animals from the sham group went through similar procedures but proceeded neither left common carotid artery ligation and cut followed by hypoxia nor vehicle or estetrol administration. Rat pups recovered with their dams until being sacrificed at postnatal day 14.
To evaluate the post-operative well-being of rat pups due to the performed manipulations and estetrol treatment, the post-operative body weight was measured at postnatal days 7 and 14.

[3] = Ex.8 therapeutic HIE rat model (E4 alone or combinations): rectal temperature; settings: vs sham
Experimental: All the compounds used for in vivo studies were dissolved in absolute Ethanol (ETOH) and further diluted in saline solution at a final concentration of ETOH 10%. An equal volume (5 μ1/g) of the solution was injected intraperitoneally (ip) into the pups from study groups. Rat pups from the vehicle group were ip injected a saline solution containing 10% ETOH. Rat pups from the Sham group were not injected at all.
To study the therapeutic effect of estetrol, newborn rat pups were assigned to one of the following 14 groups at postnatal day 7 (FIG. 23(B)): Sham group (n=12), Vehicle (n=15), 5 mg/kg/day E4 (n=11), 10 mg/kg/day E4 (n=11), 5 mg/kg/day E4+1.6 mg/kg/day PROG (n=11), 10 mg/kg/day E4+1.6 mg/kg/day PROG (n=11), 5 mg/kg/day E4+16 mg/kg/day PROG (n=11), 10 mg/kg/day E4+16 mg/kg/day PROG (n=13), 5 mg/kg/day E4+136 ng//kg/day E2 (n=11), 10 mg/kg/day E4+136 ng/kg/day E2 (n=11), 5 mg/kg/day E4+1.6 mg/kg/day PROG+136 ng/kg/day E2 (n=12), 10 mg/kg/day E4+1.6 mg/kg/day PROG+136 ng/kg/day E2 (n=11), 5 mg/kg/day E4+16 mg/kg/day PROG+136 ng/kg/day E2 (n=11), 10 mg/kg/day E4+16 mg/kg/day PROG+136 ng/kg/day (n=12) groups. […]
The rectal temperature of the rat pups was measured with a multipurpose thermometer (BAT-10R, Physitemp Instruments Inc., Clifton, N.J., US) along with a rectal probe (RET-4, BioMedical Instruments, Zollnitz, Germany) at 0, 2, and 4 hours after exposure to hypoxic insult. […]

Structure (SMILES): C[C@]12CC[C@@H]3c4ccc(O)cc4CC[C@H]3[C@@H]1[C@@H](O)[C@@H](O)[C@@H]2O [E4, 1,3,5(10)-estratrien-3,15α,16α,17β-tetrol]
- brain weight [1]: significantly higher
- body weight ([2]; 1 mg/kg E4 single ip dose after HI, vs vehicle): significantly higher body weight than the vehicle group
- body weight ([2]; 5 mg/kg E4 single ip dose after HI, vs sham): Sham operated animals showed significantly higher body weight
- body weight ([2]; 5 mg/kg E4 single ip dose after HI, vs vehicle): significantly higher body weight than the vehicle group
- body weight ([2]; 10 mg/kg E4 single ip dose after HI, vs vehicle): significantly higher body weight than the vehicle group
- body weight ([2]; 50 mg/kg E4 single ip dose after HI, vs vehicle): significantly higher body weight than the vehicle group
- rectal temperature ([3]; 5 mg/kg/day E4, 4 h after HI, E4+E2 and E4+16 mg/kg/day PROG+E2): significantly higher rectal temperature
- rectal temperature ([3]; 10 mg/kg/day E4, 4 h after HI, E4+E2 and E4+16 mg/kg/day PROG): significant increase of the rectal temperature
